{"source": "patent US7244760B2", "about": "“Methods for preparation and use of psorospermin analogs” (Board of Regents, The University of Texas System, priority 2001, dated 2007)", "key": {"K562": {"system": "K562", "test": "Microcytoxicity assay (SRB), K562", "type": "cell-based, human", "settings": "Chronic myelogenous leukemia", "experimental": "(§1) Cells were grown in suspension in RPMI 1640 medium supplemented with 5% fetal bovine serum, 1% (v/v) penicillin (100 unit/ml), streptomycin (100 μg/ml), and 1% (v/v) L-glutamine (all from GIBCO, Grand Island, N.Y.) at 37° C. in 5% CO2, 95% air atmosphere, and were passaged once every six days. Additionally, these lines are capable of in vivo growth in SCID mice for in vivo confirmatory studies. In initial experiments, two diastereomeric pairs of (±)-psorospermin methyl ethers in a series of cell lines were evaluated.\n(§2) (ii) Microcytoxicity assay. A standard 96-well microcytoxicity assay is performed by plating each cell line in a microtiter plate at 4,000-10,000 cells per well (depending on cell doubling time), six replicate wells per drug dose. All plates are incubated for 4 days at 37° C. in a humidified tissue culture incubator containing 5% CO2 in air. The endpoint determination uses sulforhodamine blue (SRB) and spectrophotometric determination of protein content of each well as reflected by SRB staining. IC50 values were calculated by linear regression analysis."}, "MiaPaCa-2 (pancreatic)": {"system": "MiaPaCa-2 (pancreatic)", "test": "Microcytoxicity assay (SRB), MiaPaCa-2", "type": "cell-based, human", "settings": "for In vitro cytotoxic potency: MiaPaCa-2, 4 days, SRB", "excerpt": "(§3) (i) Human tumor cell lines. Human tumor cell lines representative of major forms of human cancer for use in the microcytoxicity assay include MCF7 (breast), SW480 (colon), HL-60 (promyelocytic leukemia), MiaPaCa-2 (pancreatic), U937 (histiocytic lymphoma), and 8226 (myeloma) (see Table 5). One drug resistant variant of 8226 was also included: 8226/DOX40, an mdr-1-mediated drug resistant cell line. Other matched pairs may also be added. All lines have known karyotypes that are checked at least annually for quality control.\nas §1, §2"}, "MCF 10A": {"system": "MCF 10A", "test": "Microcytoxicity assay (SRB), MCF 10A", "type": "cell-based", "settings": "Breast, normal mammary", "experimental": "as §1, §2"}, "MCF7 (breast)": {"system": "MCF7 (breast)", "test": "Microcytoxicity assay (SRB), MCF7", "type": "cell-based, human", "settings": "for In vitro cytotoxic potency: 4 days, SRB", "excerpt": "as §3, §1, §2"}, "[1]": {"system": "HL-60 (promyelocytic leukemia)", "test": "Microcytoxicity assay (SRB), HL-60", "type": "cell-based, human", "excerpt": "as §3, §1, §2"}, "tumor cell lines": {"system": "tumor cell lines", "test": "Microcytoxicity assay, all tumor cell lines tested", "type": "cell-based, human", "settings": "on average over the cell lines of Table 5", "excerpt": "as §3, §1\n(§4) (ii) Microcytoxicity assay. A standard 96-well microcytoxicity assay is performed by plating each cell line in a microtiter plate at 4,000-10,000 cells per well (depending on cell doubling time), six replicate wells per drug dose. […] IC50 values were calculated by linear regression analysis."}, "A2780": {"system": "A2780", "test": "Microcytoxicity assay (SRB), A2780", "type": "cell-based, human", "settings": "Ovarian", "experimental": "as §1, §2"}, "[2]": {"system": "Acute promyelocytic leukemia", "test": "Microcytoxicity assay (SRB), cell line not given", "type": "cell-based, human", "settings": "cell line cell empty; origin Acute promyelocytic leukemia", "experimental": "as §1, §2"}, "[3]": {"system": "HL60/AR (adriamycin resistant)", "test": "Microcytoxicity assay (SRB), HL60/AR", "type": "cell-based, human", "settings": "Acute promyelocytic leukemia", "experimental": "as §1, §2"}, "[4]": {"system": "K562/R (daunorubicin resistant)", "test": "Microcytoxicity assay (SRB), K562/R", "type": "cell-based, human", "settings": "Chronic myelogenous leukemia", "experimental": "as §1, §2"}, "PC-3N": {"system": "PC-3N", "test": "Microcytoxicity assay (SRB), PC-3N", "type": "cell-based, human", "settings": "Prostate, N-cadherin positive", "experimental": "as §1, §2"}, "[5]": {"system": "8226/DOX40, an mdr-1-mediated drug resistant cell line", "test": "Microcytoxicity assay (SRB), 8226/DOX40", "type": "cell-based, human", "settings": "4 days", "excerpt": "as §3, §1, §4"}, "[6]": {"system": "U937 (histiocytic lymphoma)", "test": "Microcytoxicity assay (SRB), U937", "type": "cell-based, human", "settings": "4 days", "excerpt": "as §3, §1, §4"}, "LnCAP": {"system": "LnCAP", "test": "Microcytoxicity assay (SRB), LnCAP", "type": "cell-based, human", "settings": "Prostate, lymph node mets", "experimental": "as §1, §2"}, "[7]": {"system": "A2780/CP70 (cisplatin resistant)", "test": "Microcytoxicity assay (SRB), A2780/CP70", "type": "cell-based, human", "settings": "Ovarian", "experimental": "as §1, §2"}, "PEAZ-1": {"system": "PEAZ-1", "test": "Microcytoxicity assay (SRB), PEAZ-1", "type": "cell-based, human", "settings": "Prostate, primary", "experimental": "as §1, §2"}, "SW480 (colon)": {"system": "SW480 (colon)", "test": "Microcytoxicity assay (SRB), SW480", "type": "cell-based, human", "settings": "4 days", "excerpt": "as §3, §1, §4"}, "DU 145": {"system": "DU 145", "test": "Microcytoxicity assay (SRB), DU 145", "type": "cell-based, human", "experimental": "as §1, §2"}, "8226 (myeloma)": {"system": "8226 (myeloma)", "test": "Microcytoxicity assay (SRB), 8226", "type": "cell-based, human", "settings": "4 days", "excerpt": "as §3, §1, §4"}, "PC-3": {"system": "PC-3", "test": "Microcytoxicity assay (SRB), PC-3", "type": "cell-based, human", "settings": "Prostate, adenocarcinoma, mets", "experimental": "as §1, §2"}, "P388 mouse leukemia": {"system": "P388 mouse leukemia", "settings": "cited from earlier work"}, "various tumor cell lines": {"system": "various tumor cell lines", "settings": "cited from earlier work"}, "[8]": {"target": "topoisomerase II-DNA complex (Drosophila melanogaster, UniProt P15348)", "sequence (P15348 whole entry, one chain of several)": "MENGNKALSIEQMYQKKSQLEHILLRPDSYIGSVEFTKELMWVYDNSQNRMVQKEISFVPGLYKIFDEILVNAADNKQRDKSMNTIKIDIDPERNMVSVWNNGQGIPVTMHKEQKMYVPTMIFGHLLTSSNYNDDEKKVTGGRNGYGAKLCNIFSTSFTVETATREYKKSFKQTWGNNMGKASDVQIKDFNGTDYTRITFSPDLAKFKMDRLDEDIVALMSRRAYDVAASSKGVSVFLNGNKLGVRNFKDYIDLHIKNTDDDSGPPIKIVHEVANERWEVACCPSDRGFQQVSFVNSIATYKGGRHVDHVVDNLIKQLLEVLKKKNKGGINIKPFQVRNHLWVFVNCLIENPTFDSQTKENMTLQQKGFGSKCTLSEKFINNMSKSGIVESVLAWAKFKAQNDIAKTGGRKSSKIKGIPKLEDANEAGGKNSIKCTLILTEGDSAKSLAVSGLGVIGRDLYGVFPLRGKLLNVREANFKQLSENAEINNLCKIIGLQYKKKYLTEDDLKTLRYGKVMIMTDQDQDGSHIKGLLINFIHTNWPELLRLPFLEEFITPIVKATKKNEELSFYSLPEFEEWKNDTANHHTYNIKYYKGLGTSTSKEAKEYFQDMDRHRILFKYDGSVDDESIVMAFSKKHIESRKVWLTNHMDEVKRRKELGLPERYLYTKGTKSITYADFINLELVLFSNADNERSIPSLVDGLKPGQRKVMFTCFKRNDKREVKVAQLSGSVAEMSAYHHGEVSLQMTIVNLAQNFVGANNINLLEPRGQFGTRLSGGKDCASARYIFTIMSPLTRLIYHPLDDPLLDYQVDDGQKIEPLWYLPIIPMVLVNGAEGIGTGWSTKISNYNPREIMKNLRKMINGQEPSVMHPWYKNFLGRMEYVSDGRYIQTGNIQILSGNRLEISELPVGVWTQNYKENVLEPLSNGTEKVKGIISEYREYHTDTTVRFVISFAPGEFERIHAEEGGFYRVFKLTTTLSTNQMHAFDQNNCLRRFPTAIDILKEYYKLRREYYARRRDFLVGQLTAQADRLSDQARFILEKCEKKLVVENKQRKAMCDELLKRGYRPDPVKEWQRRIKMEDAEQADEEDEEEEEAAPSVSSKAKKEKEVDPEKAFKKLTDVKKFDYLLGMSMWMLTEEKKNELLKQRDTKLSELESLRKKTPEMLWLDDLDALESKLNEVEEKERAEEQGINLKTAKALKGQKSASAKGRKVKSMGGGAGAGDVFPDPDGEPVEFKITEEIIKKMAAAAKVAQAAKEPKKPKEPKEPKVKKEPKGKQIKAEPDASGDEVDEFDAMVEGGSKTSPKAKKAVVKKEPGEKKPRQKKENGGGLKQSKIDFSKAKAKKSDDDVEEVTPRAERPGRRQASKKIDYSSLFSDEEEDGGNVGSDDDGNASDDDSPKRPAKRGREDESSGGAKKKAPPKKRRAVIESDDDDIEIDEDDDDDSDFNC", "test": "Topoisomerase II site-directed alkylation of DNA", "type": "biochemical", "settings": "in the presence of topoisomerase II", "experimental": "(§5) In the absence of psorospermin, the intensity of the topoisomerase II-mediated DNA cleavage is much less at site B than at site A. As the concentration of psorospermin was increased, the topoisomerase II-mediated DNA cleavage at site A was decreased, while the cleavage at site B was enhanced. The psorospermin-induced DNA cleavage by topoisomerase II reaches a maximum of 3-fold at a 10 μM drug concentration (FIG. 4). […] On the other hand, the cleaved complex formation at site A was reduced in the presence of psorospermin, despite the 3-fold enhancement of psorospermin alkylation at site A.\n(§6) Sites A and B are three base pairs apart from each other, and Drosophila topoisomerase II binds a region of approximately 23 base pairs, based on the results of a DNase I footprinting experiment (Lee et al, 1989). Therefore, it is likely that sites A and B are competing with each other for topoisomerase II binding, and the 25-fold enhancement of the psorospermin alkylation at site B dominates this competition. FIG. 5 summarizes the three possible biochemical consequences of the site-directed alkylation of DNA by psorospermin. Because psorospermin is a 7-alkyl adduct, depurination occurs slowly at room temperature over a period of several days."}, "topoisomerase II": {"target": "topoisomerase II (Drosophila melanogaster, UniProt P15348)", "sequence (P15348 whole entry)": "as the sequence (P15348 whole entry, one chain of several) above", "test": "Topoisomerase II-mediated DNA cleavage", "type": "biochemical", "experimental": "as §5, §6"}, "HT-29": {"system": "HT-29", "test": "Microcytoxicity assay (SRB), HT-29", "type": "cell-based, human", "experimental": "as §2"}}, "note": "“Also recorded” adds a separate entry of the source. Like-named read-outs stand apart in the source and are kept apart here."}
{"compound": "COc1c2c(c3oc4ccccc4c(=O)c3c1OC)CC([C@@]1(C)CO1)O2", "note": "(mixture of isomers) [Compound A, (±)-(2′R,3′R) (2′S,3′S) psorospermin methyl ether]", "values": [{"measurement": "IC50", "setting": "K562", "value": 36, "unit": "nM"}, {"measurement": "IC50", "setting": "MiaPaCa-2 (pancreatic); MIA PaCa-2, pancreas, read-out: IC50 Values", "value": 180, "unit": "nM"}, {"measurement": "activity in the pancreatic cell line MiaPaCa", "setting": "MiaPaCa-2 (pancreatic); MiaPaCa", "value": "remarkable activity"}, {"measurement": "In vitro cytotoxic potency", "setting": "MiaPaCa-2 (pancreatic)", "value": 0.26, "unit": "µg/mL"}, {"measurement": "activity in MiaPaCa compared with gemcytabine", "setting": "MiaPaCa-2 (pancreatic); MiaPaCa, versus gemcytabine", "value": "as good or better"}, {"measurement": "IC50", "setting": "MCF 10A", "value": 5350, "unit": "nM"}, {"measurement": "In vitro cytotoxic potency", "setting": "MCF7 (breast)", "value": 0.28, "unit": "µg/mL"}, {"measurement": "IC50", "setting": "MCF7 (breast); Breast, adenocarcinoma", "value": 610, "unit": "nM"}, {"measurement": "IC50", "setting": "[1]; HL60, origin printed: promyelocytic leukemia", "value": 36, "unit": "nM"}, {"measurement": "In vitro cytotoxic potency", "setting": "[1]; HL-60, 4 days, SRB", "value": 0.026, "unit": "µg/mL"}, {"measurement": "effectiveness relative to Compound B", "setting": "tumor cell lines", "value": "more potent; also recorded: twice as effective"}, {"measurement": "IC50", "setting": "A2780", "value": 63, "unit": "nM"}, {"measurement": "IC50", "setting": "[2]", "value": 11, "unit": "nM"}, {"measurement": "IC50", "setting": "[3]", "value": 12, "unit": "nM"}, {"measurement": "IC50", "setting": "[4]", "value": 24, "unit": "nM"}, {"measurement": "IC50", "setting": "PC-3N", "value": 130, "unit": "nM"}, {"measurement": "In vitro cytotoxic potency", "setting": "[5]", "value": 0.06, "unit": "µg/mL"}, {"measurement": "In vitro cytotoxic potency", "setting": "[6]", "value": 0.062, "unit": "µg/mL"}, {"measurement": "IC50", "setting": "LnCAP", "value": 460, "unit": "nM"}, {"measurement": "IC50", "setting": "[7]", "value": 473, "unit": "nM"}, {"measurement": "IC50", "setting": "PEAZ-1", "value": 160, "unit": "nM"}, {"measurement": "In vitro cytotoxic potency", "setting": "SW480 (colon)", "value": 0.24, "unit": "µg/mL"}, {"measurement": "IC50", "setting": "DU 145; DU 145, Prostate, brain mets, read-out: IC50 Values", "value": 304, "unit": "nM"}, {"measurement": "In vitro cytotoxic potency", "setting": "8226 (myeloma)", "value": 0.21, "unit": "µg/mL"}, {"measurement": "IC50", "setting": "PC-3", "value": 280, "unit": "nM"}]}
{"compound": "(±)-(2′R,3′S) (2′S,3′R) psorospermin methyl ether [Compound B]", "values": [{"measurement": "In vitro cytotoxic potency", "setting": "MiaPaCa-2 (pancreatic)", "value": 0.48, "unit": "µg/mL"}, {"measurement": "In vitro cytotoxic potency", "setting": "MCF7 (breast)", "value": 0.74, "unit": "µg/mL"}, {"measurement": "sensitivity of HL-60", "setting": "[1]; HL-60, positive for c-myc and BCL-2", "value": "highly sensitive"}, {"measurement": "In vitro cytotoxic potency", "setting": "[5]", "value": 0.30, "unit": "µg/mL"}, {"measurement": "In vitro cytotoxic potency", "setting": "SW480 (colon)", "value": 0.36, "unit": "µg/mL"}, {"measurement": "In vitro cytotoxic potency", "setting": "8226 (myeloma)", "value": 0.33, "unit": "µg/mL"}]}
{"compound": "COc1cc2c(c3oc4c(O)cccc4c(=O)c13)C[C@H]([C@@]1(C)CO1)O2", "note": "[psorospermin]", "values": [{"measurement": "activity in vivo against P388 mouse leukemia", "setting": "P388 mouse leukemia", "value": "significant activity"}, {"measurement": "activity in vitro against various tumor cell lines", "setting": "various tumor cell lines", "value": "significant activity"}, {"measurement": "enhancement of psorospermin alkylation at site A", "setting": "[8]; site A", "value": 3, "unit": "fold"}, {"measurement": "enhancement of the psorospermin alkylation at site B", "setting": "[8]; site B", "value": 25, "unit": "fold"}, {"measurement": "topoisomerase II-mediated DNA cleavage at site A", "setting": "topoisomerase II; site A, as the concentration of psorospermin was increased", "value": "decreased"}, {"measurement": "psorospermin-induced DNA cleavage by topoisomerase II, maximum", "setting": "topoisomerase II; site B, 10 μM drug concentration", "value": 3, "unit": "fold"}]}
{"compound": "(2S,3R)-psorospermin methyl ether [Compound 116]", "values": [{"measurement": "IC50", "setting": "MiaPaCa-2 (pancreatic); MiaPaCa, read-out: IC50", "value": 4000, "unit": "nM"}, {"measurement": "IC50", "setting": "DU 145; DU-145, read-out: IC50", "value": 4000, "unit": "nM"}, {"measurement": "IC50", "setting": "HT-29", "value": 7000, "unit": "nM"}]}
{"compound": "(2R,3S)-psorospermin methyl ether [Compound 117]", "values": [{"measurement": "IC50", "setting": "MiaPaCa-2 (pancreatic); MiaPaCa, read-out: IC50", "value": 400, "unit": "nM"}, {"measurement": "IC50", "setting": "DU 145; DU-145, read-out: IC50", "value": 400, "unit": "nM"}, {"measurement": "IC50", "setting": "HT-29", "value": 700, "unit": "nM"}]}
